≈ marks a conversion by molar mass, not a printed value. Calls of active or inactive are those of the source. No cut-off for these calls is given here.
Legend:
Bacillus anthracis [1] = assay: Antimicrobial activity against Bacillus anthracis Ames infected in BALB/c mouse anthrax spore inhalation infection model assessed as decrease in tissue bacterial burden at 50 mg/kg, sc bid for 21 days administered 24 hrs post bacterial challenge measured 43 days post bacterial challenge; type: functional, organism-based; set-up: dose 50 mg/kg
Bacillus anthracis [2] = assay: Antimicrobial activity against Bacillus anthracis Ames infected in BALB/c mouse anthrax spore inhalation infection model assessed as decrease in tissue bacterial burden at 50 mg/kg, sc bid for 14 days administered 24 hrs post bacterial challenge measured 43 days post bacterial challenge; type: functional, organism-based; set-up: dose 50 mg/kg
Bacillus anthracis [3] = assay: Antimicrobial activity against Bacillus anthracis Ames by CLSI broth microdilution method; type: functional
Mus musculus [4] = assay: AUC at 24 hrs in Bacillus anthracis Ames infected in BALB/c mouse anthrax spore inhalation infection model at 50 mg/kg, sc bid for 14 days administered 24 hrs post bacterial challenge; type: functional, organism-based; set-up: dose 50 mg/kg
Mus musculus [5] = assay: AUC in Bacillus anthracis Ames infected in BALB/c mouse anthrax spore inhalation infection model at 50 mg/kg, sc bid for 14 days administered 24 hrs post bacterial challenge; type: functional, organism-based; set-up: dose 50 mg/kg

CCCCCCCCCC(=O)N[C@@H](Cc1c[nH]c2ccccc12)C(=O)N[C@H](CC(N)=O)C(=O)N[C@@H](CC(=O)O)C(=O)N[C@@H]1C(=O)NCC(=O)N[C@@H](CCCN)C(=O)N[C@@H](CC(=O)O)C(=O)N[C@H](C)C(=O)N[C@@H](CC(=O)O)C(=O)NCC(=O)N[C@H](CO)C(=O)N[C@@H]([C@H](C)CC(=O)O)C(=O)N[C@@H](CC(=O)c2ccccc2N)C(=O)O[C@@H]1C
Activity (Bacillus anthracis [1]): Active
Activity (Bacillus anthracis [2]): Active
MIC50 (Bacillus anthracis [3]): 2 µg/mL (≈ 1.23 µM)
MIC90 (Bacillus anthracis [3]): 4 µg/mL (≈ 2.47 µM)
AUC (Mus musculus [4]): 750000 ng·h/mL
AUC (Mus musculus [5]): > 375000 ng·h/mL

Source: ChEMBL document CHEMBL1687771 (Antimicrob Agents Chemother, 2010)
